Assay results published in paper PMC10337138 (Acta Neuropathologica Communications, 2023).

Legend:
Conditions in all cases: 1 mM ATP; inhibitor
CDK14 = CDK14 (Homo sapiens, UniProt O94921)
Procedure: (§1) Kinase selectivity panel Kinome profiling was conducted by AssayQuant Technologies (Marlboro, MA) using Sox chromophore technology and Sox-based peptide substrates developed for human kinases in a 384-well format. Compounds were tested at 1 µM in the presence of 1 mM ATP.

CDK4/D3 = CDK4/D3 (Homo sapiens, UniProt P11802)
Procedure: as §1

CSK = CSK (Homo sapiens, UniProt P41240)
Procedure: as §1

CSNK1A1/CK1A1 = CSNK1A1/CK1A1 (Homo sapiens, UniProt P48729)
Procedure: as §1

CSNK1AL/CK1A2 = biological target: T1, CSNK1AL/CK1A2 (Homo sapiens, UniProt Q8N752)
T1 construct: gene CSNK1A1L
Procedure: as §1

CSNK1G3/CK1G3 = CSNK1G3/CK1G3 (Homo sapiens, UniProt Q9Y6M4)
Procedure: as §1

DAPK1 = DAPK1 (Homo sapiens, UniProt P53355)
Procedure: as §1

EIF2AK2/PKR = EIF2AK2/PKR (Homo sapiens, UniProt P19525)
Procedure: as §1

ERBB4/HER4 = ERBB4/HER4 (Homo sapiens, UniProt Q15303)
Procedure: as §1

FGR = FGR (Homo sapiens, UniProt P09769)
Procedure: as §1

INSRR = INSRR (Homo sapiens, UniProt P14616)
Procedure: as §1

LATS2 = LATS2 (Homo sapiens, UniProt Q9NRM7)
Procedure: as §1

LCK = LCK (Homo sapiens, UniProt P06239)
Procedure: as §1

LIMK1 = LIMK1 (Homo sapiens, UniProt P53667)
Procedure: as §1

MAP3K1 = MAP3K1 (Homo sapiens, UniProt Q13233)
Procedure: as §1

MAP4K5/KSH1 = MAP4K5/KSH1 (Homo sapiens, UniProt Q9Y4K4)
Procedure: as §1

MAPK10/JNK3 = MAPK10/JNK3 (Homo sapiens, UniProt P53779)
Procedure: as §1

MELK = MELK (Homo sapiens, UniProt Q14680)
Procedure: as §1

MINK1 = MINK1 (Homo sapiens, UniProt Q8N4C8)
Procedure: as §1

MYLK3 = MYLK3 (Homo sapiens, UniProt Q32MK0)
Procedure: as §1

NIM1 = biological target: T2, NIM1 (Homo sapiens, UniProt Q8IY84)
T2 construct: gene NIM1K
Procedure: as §1

NTRK3/TRKC = NTRK3/TRKC (Homo sapiens, UniProt Q16288)
Procedure: as §1

PAK5 = PAK5 (Homo sapiens, UniProt Q9P286)
Procedure: as §1

PIM2 = PIM2 (Homo sapiens, UniProt Q9P1W9)
Procedure: as §1

PRKCA/PKCA = PRKCA/PKCA (Homo sapiens, UniProt P17252)
Procedure: as §1

PRKCB1/PKCB1 = biological target: T3, PRKCB1/PKCB1 (Homo sapiens, UniProt P05771)
T3 construct: gene PRKCB
Procedure: as §1

PRKCD/CPKCD = PRKCD/CPKCD (Homo sapiens, UniProt Q05655)
Procedure: as §1

PRKCE/PKCE = PRKCE/PKCE (Homo sapiens, UniProt Q02156)
Procedure: as §1

PRKCI/PKCI = PRKCI/PKCI (Homo sapiens, UniProt P41743)
Procedure: as §1

PRKCZ/PKCZ = PRKCZ/PKCZ (Homo sapiens, UniProt Q05513)
Procedure: as §1

SGK1 = SGK1 (Homo sapiens, UniProt O00141)
Procedure: as §1

SRPK2 = SRPK2 (Homo sapiens, UniProt P78362)
Procedure: as §1

STK3/MST2 = STK3/MST2 (Homo sapiens, UniProt Q13188)
Procedure: as §1

SYK = SYK (Homo sapiens, UniProt P43405)
Procedure: as §1

TESK2 = TESK2 (Homo sapiens, UniProt Q96S53)
Procedure: as §1

TSSK2 = TSSK2 (Homo sapiens, UniProt Q96PF2)
Procedure: as §1

TYK2(JH1) = TYK2(JH1) (Homo sapiens, UniProt P29597)
Procedure: as §1

YSK4 = biological target: T4, YSK4 (Homo sapiens, UniProt Q56UN5)
T4 construct: gene MAP3K19
Procedure: as §1

INSRR, sequence (P14616 whole entry): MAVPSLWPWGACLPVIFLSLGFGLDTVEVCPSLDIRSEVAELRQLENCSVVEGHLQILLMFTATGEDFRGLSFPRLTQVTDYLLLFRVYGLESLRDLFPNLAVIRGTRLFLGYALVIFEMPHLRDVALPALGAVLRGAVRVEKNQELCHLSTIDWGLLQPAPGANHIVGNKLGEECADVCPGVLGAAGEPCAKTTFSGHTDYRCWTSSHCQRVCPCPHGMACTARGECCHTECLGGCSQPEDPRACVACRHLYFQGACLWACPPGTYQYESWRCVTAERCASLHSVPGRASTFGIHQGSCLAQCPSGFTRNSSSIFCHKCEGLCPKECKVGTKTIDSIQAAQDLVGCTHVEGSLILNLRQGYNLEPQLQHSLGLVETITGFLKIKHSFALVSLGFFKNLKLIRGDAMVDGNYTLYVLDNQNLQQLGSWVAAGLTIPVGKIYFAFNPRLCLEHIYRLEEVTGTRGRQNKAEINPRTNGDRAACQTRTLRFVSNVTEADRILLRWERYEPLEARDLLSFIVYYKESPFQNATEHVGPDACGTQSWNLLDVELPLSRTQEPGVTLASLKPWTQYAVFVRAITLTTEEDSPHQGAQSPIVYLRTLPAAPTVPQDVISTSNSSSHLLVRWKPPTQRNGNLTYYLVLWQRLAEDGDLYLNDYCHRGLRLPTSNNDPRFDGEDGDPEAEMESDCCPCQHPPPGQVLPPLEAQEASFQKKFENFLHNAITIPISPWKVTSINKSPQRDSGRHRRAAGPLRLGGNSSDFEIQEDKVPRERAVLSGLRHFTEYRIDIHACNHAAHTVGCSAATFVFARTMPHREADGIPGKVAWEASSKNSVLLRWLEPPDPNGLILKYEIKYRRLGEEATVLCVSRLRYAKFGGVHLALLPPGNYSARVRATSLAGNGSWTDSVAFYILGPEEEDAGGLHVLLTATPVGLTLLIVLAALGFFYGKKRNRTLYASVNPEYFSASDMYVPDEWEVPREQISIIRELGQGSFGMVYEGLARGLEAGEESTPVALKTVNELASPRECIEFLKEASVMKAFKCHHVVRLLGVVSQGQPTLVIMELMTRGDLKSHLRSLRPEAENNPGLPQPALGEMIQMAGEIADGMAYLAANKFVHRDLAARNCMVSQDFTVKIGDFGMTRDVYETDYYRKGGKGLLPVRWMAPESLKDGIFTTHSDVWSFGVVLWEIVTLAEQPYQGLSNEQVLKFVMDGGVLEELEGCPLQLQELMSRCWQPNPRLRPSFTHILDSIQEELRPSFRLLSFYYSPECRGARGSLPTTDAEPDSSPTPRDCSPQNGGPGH
ERBB4/HER4, sequence (Q15303 whole entry): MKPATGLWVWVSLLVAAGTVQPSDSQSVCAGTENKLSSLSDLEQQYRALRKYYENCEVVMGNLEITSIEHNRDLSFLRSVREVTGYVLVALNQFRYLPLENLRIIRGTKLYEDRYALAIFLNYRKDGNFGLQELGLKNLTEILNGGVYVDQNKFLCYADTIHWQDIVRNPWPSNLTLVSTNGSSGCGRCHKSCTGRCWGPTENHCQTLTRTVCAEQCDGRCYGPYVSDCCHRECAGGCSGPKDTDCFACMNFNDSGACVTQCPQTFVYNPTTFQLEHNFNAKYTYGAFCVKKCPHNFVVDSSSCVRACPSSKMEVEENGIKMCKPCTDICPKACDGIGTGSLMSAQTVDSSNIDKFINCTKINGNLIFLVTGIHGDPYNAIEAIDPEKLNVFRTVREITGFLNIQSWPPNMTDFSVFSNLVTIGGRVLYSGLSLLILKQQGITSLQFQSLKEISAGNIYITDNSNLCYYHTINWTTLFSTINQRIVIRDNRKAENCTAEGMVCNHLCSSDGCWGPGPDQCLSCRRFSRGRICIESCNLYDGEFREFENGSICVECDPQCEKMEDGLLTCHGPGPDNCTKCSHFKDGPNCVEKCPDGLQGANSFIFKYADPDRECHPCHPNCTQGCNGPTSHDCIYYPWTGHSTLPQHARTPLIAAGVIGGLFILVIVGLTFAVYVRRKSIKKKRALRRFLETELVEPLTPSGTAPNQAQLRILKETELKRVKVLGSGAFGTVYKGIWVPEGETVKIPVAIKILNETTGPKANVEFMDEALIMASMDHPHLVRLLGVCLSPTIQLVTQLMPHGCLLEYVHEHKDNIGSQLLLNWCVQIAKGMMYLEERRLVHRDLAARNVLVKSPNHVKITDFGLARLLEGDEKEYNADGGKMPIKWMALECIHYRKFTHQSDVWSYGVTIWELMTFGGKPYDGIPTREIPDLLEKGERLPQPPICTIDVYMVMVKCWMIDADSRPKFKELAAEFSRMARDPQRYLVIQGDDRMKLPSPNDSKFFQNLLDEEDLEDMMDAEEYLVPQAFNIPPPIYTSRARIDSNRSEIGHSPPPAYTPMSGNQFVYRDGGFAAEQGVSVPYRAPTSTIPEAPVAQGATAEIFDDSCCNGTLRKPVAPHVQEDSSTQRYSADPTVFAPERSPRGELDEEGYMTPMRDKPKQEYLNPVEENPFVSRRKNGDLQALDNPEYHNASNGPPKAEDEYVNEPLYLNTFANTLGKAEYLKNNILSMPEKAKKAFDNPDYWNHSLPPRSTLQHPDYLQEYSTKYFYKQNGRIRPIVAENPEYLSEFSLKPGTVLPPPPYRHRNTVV
CSK, sequence (P41240 whole entry): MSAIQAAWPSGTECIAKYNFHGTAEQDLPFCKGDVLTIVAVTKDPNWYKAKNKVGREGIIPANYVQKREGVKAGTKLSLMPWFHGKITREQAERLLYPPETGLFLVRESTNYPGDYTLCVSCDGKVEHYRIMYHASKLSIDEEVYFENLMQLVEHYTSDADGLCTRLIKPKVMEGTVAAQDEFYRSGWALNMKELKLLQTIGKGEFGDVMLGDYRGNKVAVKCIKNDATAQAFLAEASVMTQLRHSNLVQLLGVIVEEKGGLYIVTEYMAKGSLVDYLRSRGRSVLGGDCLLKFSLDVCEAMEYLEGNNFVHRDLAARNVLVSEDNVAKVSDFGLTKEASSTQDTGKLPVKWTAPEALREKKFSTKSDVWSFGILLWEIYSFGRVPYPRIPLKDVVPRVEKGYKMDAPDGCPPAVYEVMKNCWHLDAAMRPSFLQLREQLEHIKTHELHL
CDK4/D3, sequence (P11802 whole entry): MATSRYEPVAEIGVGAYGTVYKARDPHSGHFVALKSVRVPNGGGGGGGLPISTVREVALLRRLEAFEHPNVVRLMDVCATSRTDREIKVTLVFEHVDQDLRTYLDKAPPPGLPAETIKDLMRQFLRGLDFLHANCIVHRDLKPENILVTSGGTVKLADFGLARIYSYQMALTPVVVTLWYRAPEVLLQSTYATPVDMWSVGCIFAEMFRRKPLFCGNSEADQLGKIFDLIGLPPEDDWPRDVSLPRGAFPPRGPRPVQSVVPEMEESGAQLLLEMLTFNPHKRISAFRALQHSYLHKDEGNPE
CDK4/D3, sequence (P30281 whole entry partner): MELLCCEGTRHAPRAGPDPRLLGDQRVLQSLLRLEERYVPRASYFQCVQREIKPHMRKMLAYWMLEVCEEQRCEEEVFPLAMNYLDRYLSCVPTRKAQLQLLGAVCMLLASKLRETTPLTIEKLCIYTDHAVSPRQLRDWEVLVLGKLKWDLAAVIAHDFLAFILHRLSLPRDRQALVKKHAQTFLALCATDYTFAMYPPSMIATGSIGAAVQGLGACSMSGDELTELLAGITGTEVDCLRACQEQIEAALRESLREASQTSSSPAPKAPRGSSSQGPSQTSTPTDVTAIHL
T1 sequence (Q8N752 whole entry): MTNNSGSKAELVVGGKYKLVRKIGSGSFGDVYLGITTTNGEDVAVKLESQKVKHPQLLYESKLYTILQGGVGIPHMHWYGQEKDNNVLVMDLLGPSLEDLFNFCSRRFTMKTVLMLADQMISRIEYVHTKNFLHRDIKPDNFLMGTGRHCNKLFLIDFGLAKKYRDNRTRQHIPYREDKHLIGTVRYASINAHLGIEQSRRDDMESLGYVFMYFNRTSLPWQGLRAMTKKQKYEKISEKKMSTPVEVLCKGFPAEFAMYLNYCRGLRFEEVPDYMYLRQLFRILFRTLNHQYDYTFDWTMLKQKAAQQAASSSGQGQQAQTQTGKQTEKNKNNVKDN
MAPK10/JNK3, sequence (P53779 whole entry): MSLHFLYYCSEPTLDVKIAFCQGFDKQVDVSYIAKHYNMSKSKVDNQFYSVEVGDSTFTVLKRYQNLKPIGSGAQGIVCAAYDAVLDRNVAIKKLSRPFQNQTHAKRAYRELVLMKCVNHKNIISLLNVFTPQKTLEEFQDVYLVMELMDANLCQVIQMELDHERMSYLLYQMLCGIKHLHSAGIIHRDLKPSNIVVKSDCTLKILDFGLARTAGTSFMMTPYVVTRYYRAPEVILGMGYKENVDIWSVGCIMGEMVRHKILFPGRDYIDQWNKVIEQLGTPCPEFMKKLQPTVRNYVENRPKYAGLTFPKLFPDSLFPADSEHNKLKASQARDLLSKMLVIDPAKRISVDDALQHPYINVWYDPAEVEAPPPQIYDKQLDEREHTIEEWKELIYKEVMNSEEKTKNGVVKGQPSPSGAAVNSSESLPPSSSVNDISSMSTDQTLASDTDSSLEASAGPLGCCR
LCK, sequence (P06239 whole entry): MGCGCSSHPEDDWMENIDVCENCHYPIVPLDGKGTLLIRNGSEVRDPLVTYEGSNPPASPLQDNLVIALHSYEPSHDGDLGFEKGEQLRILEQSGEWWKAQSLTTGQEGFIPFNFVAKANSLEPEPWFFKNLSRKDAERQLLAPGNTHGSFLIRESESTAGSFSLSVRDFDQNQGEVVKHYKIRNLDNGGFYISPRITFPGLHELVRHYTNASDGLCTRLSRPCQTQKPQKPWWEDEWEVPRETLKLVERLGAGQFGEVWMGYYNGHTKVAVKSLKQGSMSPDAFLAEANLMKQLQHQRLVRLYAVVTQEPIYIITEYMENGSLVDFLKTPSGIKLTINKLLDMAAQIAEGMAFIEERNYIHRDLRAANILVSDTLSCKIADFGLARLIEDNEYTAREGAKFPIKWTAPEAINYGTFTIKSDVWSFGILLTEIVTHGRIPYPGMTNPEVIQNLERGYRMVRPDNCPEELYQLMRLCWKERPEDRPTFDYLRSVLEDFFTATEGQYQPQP

In the case of `C=CC(=O)N1CCC[C@@H](n2nc(-c3ccc(Oc4ccccc4)cc3)c3c(N)ncnc32)C1` [Ibrutinib], the “1 µM GBD00276 (ibrutinib), % inhibition” value (CDK14) is reported as 3.829%, the “1 µM GBD00276 (ibrutinib), % inhibition” value (CDK4/D3) is reported as 7.114% and the “1 µM GBD00276 (ibrutinib), % inhibition” value (CSK) is reported as 61.63%. The “1 µM GBD00276 (ibrutinib), % inhibition” value (CSNK1A1/CK1A1) was 2.433%, the “1 µM GBD00276 (ibrutinib), % inhibition” value (CSNK1AL/CK1A2) was 14.53% and the “1 µM GBD00276 (ibrutinib), % inhibition” value (CSNK1G3/CK1G3) was 15.91%. The “1 µM GBD00276 (ibrutinib), % inhibition” value (DAPK1) was 0.3006%, the “1 µM GBD00276 (ibrutinib), % inhibition” value (EIF2AK2/PKR) was 0.3752% and the “1 µM GBD00276 (ibrutinib), % inhibition” value (ERBB4/HER4) was 98.2%. For the same compound, the “1 µM GBD00276 (ibrutinib), % inhibition” value (FGR) was 56.77%, the “1 µM GBD00276 (ibrutinib), % inhibition” value (INSRR) was 19.45% and the “1 µM GBD00276 (ibrutinib), % inhibition” value (LATS2) was 10.92%. For the same compound, the “1 µM GBD00276 (ibrutinib), % inhibition” value (LCK) was 75.25%, the “1 µM GBD00276 (ibrutinib), % inhibition” value (LIMK1) was 4.583% and the “1 µM GBD00276 (ibrutinib), % inhibition” value (MAP3K1) was -9.45%. For the same compound, the “1 µM GBD00276 (ibrutinib), % inhibition” value (MAP4K5/KSH1) was 14.55%, the “1 µM GBD00276 (ibrutinib), % inhibition” value (MAPK10/JNK3) was -5.63% and the “1 µM GBD00276 (ibrutinib), % inhibition” value (MELK) was -0.3303%. For the same compound, the “1 µM GBD00276 (ibrutinib), % inhibition” value (MINK1) was 7.641%, the “1 µM GBD00276 (ibrutinib), % inhibition” value (MYLK3) was 0.8658% and the “1 µM GBD00276 (ibrutinib), % inhibition” value (NIM1) was 12.91%. The “1 µM GBD00276 (ibrutinib), % inhibition” value (NTRK3/TRKC) was 9.419%, the “1 µM GBD00276 (ibrutinib), % inhibition” value (PAK5) was 14.25% and the “1 µM GBD00276 (ibrutinib), % inhibition” value (PIM2) was -3.683%. For the same compound, the “1 µM GBD00276 (ibrutinib), % inhibition” value (PRKCA/PKCA) was 14.87%, the “1 µM GBD00276 (ibrutinib), % inhibition” value (PRKCB1/PKCB1) was -10.64% and the “1 µM GBD00276 (ibrutinib), % inhibition” value (PRKCD/CPKCD) was -43.15%. The “1 µM GBD00276 (ibrutinib), % inhibition” value (PRKCE/PKCE) was -10.08%, the “1 µM GBD00276 (ibrutinib), % inhibition” value (PRKCI/PKCI) was 5.685% and the “1 µM GBD00276 (ibrutinib), % inhibition” value (PRKCZ/PKCZ) was 7.244%. For the same compound, the “1 µM GBD00276 (ibrutinib), % inhibition” value (SGK1) was -3.083%, the “1 µM GBD00276 (ibrutinib), % inhibition” value (SRPK2) was 8.374% and the “1 µM GBD00276 (ibrutinib), % inhibition” value (STK3/MST2) was -10.97%. For the same compound, the “1 µM GBD00276 (ibrutinib), % inhibition” value (SYK) was 6.138%, the “1 µM GBD00276 (ibrutinib), % inhibition” value (TESK2) was 8.621% and the “1 µM GBD00276 (ibrutinib), % inhibition” value (TSSK2) was 9.261%. For the same compound, the “1 µM GBD00276 (ibrutinib), % inhibition” value (TYK2(JH1)) was 12.87% and the “1 µM GBD00276 (ibrutinib), % inhibition” value (YSK4) was 25.63%.
